≈ marks a conversion by molar mass, not a printed value. Where “and” joins values, the source holds several entries; their conditions need not be identical. Equal entries are not always repeated. Calls of active or inactive are those of the source. The rule behind the calls is not given here.
Key:
[1] = Cytotoxicity against African green monkey Vero cells assessed as reduction in cell population incubated for 48 hrs by MTT assay; type: toxicity, cell-based; conditions: chlorocebus sabaeus
[2] = tested on: Mycobacterium tuberculosis; experiment: Antimycobacterial activity against Mycobacterium tuberculosis H37Rv ATCC 25618 assessed as induction of morphological changes by measuring extrusion of cytosolic material at MIC incubated for 96 hrs by TEM analysis; type: functional, organism-based
[3] = Cytotoxicity against mouse J774.A1 cells assessed as reduction in cell population incubated for 48 hrs by MTT assay; type: toxicity, cell-based
[4] = tested on: Mycobacterium tuberculosis; experiment: Antimycobacterial activity against Mycobacterium tuberculosis H37Rv ATCC 25618 assessed as fractional inhibitory concentration incubated for 7 days in presence of 2-aminoheptadecan-1-ol by resazurin dye based two-dimensional micro dilution checkerboard assay; type: functional; conditions: time 7 day
[5] = tested on: Mycobacterium tuberculosis; experiment: Potency index, ratio of ethambutol MIC to test compound MIC for antimycobacterial activity against isoniazid, rifampicin, ethambutol and pyrazinamide sensitive Mycobacterium tuberculosis H37Rv ATCC 25618 assessed as inhibition of bacterial growth incubated for 7 days by resazurin dye based colorimetric method analysis; type: functional; conditions: time 7 day
[6] = tested on: Mycobacterium tuberculosis; experiment: Antimycobacterial activity against isoniazid, rifampicin, ethambutol and pyrazinamide sensitive Mycobacterium tuberculosis H37Rv ATCC 25618 assessed as inhibition of bacterial growth incubated for 7 days by resazurin dye based colorimetric method analysis; type: functional; conditions: H37Rv ATCC 25618, 168 h, time 7 day
[7] = tested on: Mycobacterium tuberculosis; experiment: Antimycobacterial activity against Mycobacterium tuberculosis H37Rv ATCC 25618 assessed as induction of morphological changes by measuring disruption and discontinuity of the bacterial envelope at MIC incubated for 96 hrs by TEM analysis; type: functional, organism-based
[8] = tested on: Mycobacterium tuberculosis; experiment: Antimycobacterial activity against Mycobacterium tuberculosis H37Rv ATCC 25618 assessed as induction of morphological changes by measuring increase in lipid inclusions at MIC incubated for 96 hrs by TEM analysis; type: functional, organism-based
[9] = tested on: Mycobacterium tuberculosis; experiment: Antimycobacterial activity against Mycobacterium tuberculosis H37Rv ATCC 25618 incubated for 7 days by resazurin dye based two-dimensional micro dilution checkerboard assay in presence of 1-(benzyloxy)heptadecan-2-amine; type: functional; conditions: time 7 day
[10] = tested on: Mycobacterium tuberculosis; experiment: Antimycobacterial activity against Mycobacterium tuberculosis H37Rv ATCC 25618 incubated for 7 days by resazurin dye based two-dimensional micro dilution checkerboard assay in presence of 1-((3,4,5-trimethoxybenzyl)oxy)heptadecan-2-amine; type: functional; conditions: time 7 day
[11] = Cytotoxicity against human HepG2 cells assessed as reduction in cell population incubated for 48 hrs by MTT assay; type: toxicity, cell-based
[12] = tested on: Klebsiella pneumoniae; experiment: Antibacterial activity against Klebsiella pneumoniae ATCC 13883 incubated for 18 hrs by resazurin dye based broth microdilution method; type: functional
[13] = tested on: Mycolicibacterium smegmatis; experiment: Antimycobacterial activity against Mycobacterium smegmatis ATCC607 infected in mouse J774 cells assessed as reduction in intracellular bacterial count at 2 times MIC measured after 24 hrs relative to control; type: functional; parameters: scale not given: the % may be the effect or the level left
[14] = tested on: Mycolicibacterium smegmatis; experiment: Antimycobacterial activity against Mycobacterium smegmatis ATCC607 assessed as reduction in bacterial viability at 16 uM by time kill assay; type: functional, organism-based; conditions: time 0-72 hrs, TDE = time-dependent effect
[15] = tested on: Mycolicibacterium smegmatis; experiment: Antimycobacterial activity against Mycobacterium smegmatis ATCC607 infected in mouse J774 cells assessed as reduction in intracellular bacterial count at MIC in presence of rifampicin measured for 24 hrs relative to control; type: functional; parameters: scale not given: the % may be the effect or the level left
[16] = tested on: Mycolicibacterium smegmatis; experiment: Antimycobacterial activity against Mycobacterium smegmatis ATCC607 infected in mouse J774 cells assessed as reduction in intracellular bacterial count at 32 uM measured after 6 hrs relative to control; type: functional; parameters: scale not given: the % may be the effect or the level left
[17] = tested on: Mycobacterium tuberculosis; experiment: Additive antimycobacterial activity against Mycobacterium tuberculosis H37Rv ATCC 25618 incubated for 7 days by resazurin dye based two-dimensional micro dilution checkerboard assay in presence of levofloxacin; type: functional; conditions: time 7 day
[18] = tested on: Mycolicibacterium smegmatis; experiment: Antimycobacterial activity against Mycobacterium smegmatis ATCC607 assessed as reduction in bacterial viability at 16 uM incubated for 24 hrs by time kill assay relative to control; type: functional
[19] = tested on: Mycobacterium tuberculosis; experiment: Synergistic antimycobacterial activity against Mycobacterium tuberculosis H37Rv ATCC 25618 incubated for 7 days by resazurin dye based two-dimensional micro dilution checkerboard assay in presence of rifampicin; type: functional; conditions: time 7 day
[20] = tested on: Mycolicibacterium smegmatis; experiment: Antimycobacterial activity against Mycobacterium smegmatis ATCC607 incubated for 24 hrs by resazurin dye based broth microdilution method; type: functional
[21] = tested on: Mycobacterium tuberculosis; experiment: Additive antimycobacterial activity against Mycobacterium tuberculosis H37Rv ATCC 25618 incubated for 7 days by resazurin dye based two-dimensional micro dilution checkerboard assay in presence of ethambutol; type: functional; conditions: time 7 day
[22] = tested on: Mycobacterium tuberculosis; experiment: Additive antimycobacterial activity against Mycobacterium tuberculosis H37Rv ATCC 25618 incubated for 7 days by resazurin dye based two-dimensional micro dilution checkerboard assay in presence of amikacin; type: functional; conditions: time 7 day
[23] = tested on: Mycolicibacterium smegmatis; experiment: Antimycobacterial activity against Mycobacterium smegmatis ATCC607 infected in mouse J774 cells assessed as log reduction in intracellular bacterial count at 2 times MIC measured after 24 hrs relative to control; type: functional
[24] = tested on: Mycobacterium tuberculosis; experiment: Additive antimycobacterial activity against Mycobacterium tuberculosis H37Rv ATCC 25618 assessed as fractional inhibitory concentration index incubated for 7 days by resazurin dye based two-dimensional micro dilution checkerboard assay in presence of ethambutol; type: functional; conditions: time 7 day
[25] = tested on: Mycobacterium tuberculosis; experiment: Additive antimycobacterial activity against Mycobacterium tuberculosis H37Rv ATCC 25618 assessed as fractional inhibitory concentration index incubated for 7 days by resazurin dye based two-dimensional micro dilution checkerboard assay in presence of levofloxacin; type: functional; conditions: time 7 day
[26] = tested on: Mycobacterium tuberculosis; experiment: Additive antimycobacterial activity against Mycobacterium tuberculosis H37Rv ATCC 25618 incubated for 7 days by resazurin dye based two-dimensional micro dilution checkerboard assay in presence of isoniazid; type: functional; conditions: time 7 day
[27] = tested on: Mycobacterium tuberculosis; experiment: Additive antimycobacterial activity against Mycobacterium tuberculosis H37Rv ATCC 25618 assessed as fractional inhibitory concentration index incubated for 7 days by resazurin dye based two-dimensional micro dilution checkerboard assay in presence of isoniazid; type: functional; conditions: time 7 day
[28] = tested on: Staphylococcus aureus; experiment: Antibacterial activity against Staphylococcus aureus ATCC 25923 incubated for 18 hrs by resazurin dye based broth microdilution method; type: functional
[29] = tested on: Mycobacterium tuberculosis; experiment: Antimycobacterial activity against Mycobacterium tuberculosis H37Rv ATCC 25618 assessed as reduction in concentration required to inhibit bacterial growth incubated for 7 days by resazurin dye based two-dimensional micro dilution checkerboard assay in presence of rifampicin relative to control; type: functional; parameters: scale not given: the % may be the effect or the level left; conditions: time 7 day
[30] = tested on: Mycolicibacterium smegmatis; experiment: Antimycobacterial activity against Mycobacterium smegmatis ATCC607 assessed as reduction in bacterial viability at 16 uM measured after 72 hrs by time kill assay in presence of rifampicin relative to control; type: functional
[31] = tested on: Mycobacterium tuberculosis; experiment: Synergistic antimycobacterial activity against Mycobacterium tuberculosis H37Rv ATCC 25618 assessed as fractional inhibitory concentration index incubated for 7 days by resazurin dye based two-dimensional micro dilution checkerboard assay in presence of rifampicin; type: functional; conditions: time 7 day
[32] = tested on: Mycobacterium tuberculosis; experiment: Additive antimycobacterial activity against Mycobacterium tuberculosis H37Rv ATCC 25618 assessed as fractional inhibitory concentration index incubated for 7 days by resazurin dye based two-dimensional micro dilution checkerboard assay in presence of amikacin; type: functional; conditions: time 7 day
[33] = tested on: Mycolicibacterium smegmatis; experiment: Antimycobacterial activity against Mycobacterium smegmatis ATCC607 infected in mouse J774 cells assessed as log reduction in intracellular bacterial count at MIC in presence of rifampicin measured for 24 hrs; type: functional
[34] = tested on: Mycolicibacterium smegmatis; experiment: Intracellular antimycobacterial activity against Mycobacterium smegmatis ATCC607 infected in mouse J774 cells assessed as reduction in bacterial count at 16 to 32 uM measured after 24 hrs; type: functional, organism-based; conditions: dose 16-32 µM
[35] = tested on: Mycolicibacterium smegmatis; experiment: Antimycobacterial activity against Mycobacterium smegmatis ATCC607 assessed as reduction in bacterial viability at 19.5 uM incubated for 24 hrs by time kill assay relative to control; type: functional
[36] = tested on: Mycolicibacterium smegmatis; experiment: Antimycobacterial activity against Mycobacterium smegmatis ATCC607 infected in mouse J774 cells assessed as reduction in intracellular bacterial count at 19.5 to 39 uM measured after 24 hrs; type: functional, organism-based; conditions: dose 19.5-39 µM
[37] = tested on: Mycobacterium tuberculosis; experiment: Antimycobacterial activity against Mycobacterium tuberculosis H37Rv ATCC 25618 assessed as fractional inhibitory concentration index incubated for 7 days by resazurin dye based two-dimensional micro dilution checkerboard assay in presence of rifampicin; type: functional; conditions: time 7 day
[38] = tested on: Mycobacterium tuberculosis; experiment: Additive antimycobacterial activity against Mycobacterium tuberculosis H37Rv ATCC 25618 assessed as fractional inhibitory concentration index incubated for […] by micro dilution checkerboard assay in presence of rifampicin; type: functional
[39] = tested on: Mycobacterium tuberculosis; experiment: Antimycobacterial activity against Mycobacterium tuberculosis H37Rv ATCC 25618 incubated for 7 days by resazurin dye based two-dimensional micro dilution checkerboard assay in presence of rifampicin; type: functional; conditions: time 7 day

Row | Structure (SMILES) | CC50 at 48 h [1] | Activity [2] | CC50 at 48 h [3] | Ratio [5] | MIC [6] | Activity [7] | Activity [8] | FIC [9] | CC50 at 48 h [11] | MIC [12] | FIC [17] | MIC [20] | FIC [21] | FIC [22] | fractional inhibitory concentration index (FICI) [24] | fractional inhibitory concentration index (FICI) [25] | FIC [26] | fractional inhibitory concentration index (FICI) [27] | MIC [28] | fractional inhibitory concentration index (FICI) [32] | other results
1 | CC[C@@H](CO)NCCN[C@@H](CC)CO [ETHAMBUTOL] | 641 µM | Active | > 1440 µM | 100 | 3.6 µM and 1 µg/mL | Active | Active | 0.5 | > 1440 µM |  |  |  |  |  |  |  |  |  |  |  | FIC [4]: 0.125; FIC [10]: 0.5
2 | CCCCCCCCCCCCCCCC(N)COCc1cc(OC)c(OC)c(OC)c1 (stereo not drawn) | 17.7 µM | Active | 120 µM | 45 | 8 µM (≈ 3.61 µg/mL) | Active | Active |  | 149 µM | 512 µM (≈ 231 µg/mL) | 0.127 | 16 µM (≈ 7.23 µg/mL) | 0.013 | 0.126 | 0.63 | 0.63 | 0.125 | 0.63 | ≤ 4 µM | 0.63 | Activity [13]: 33.3%; Activity [14]: Tde; Activity [15]: 12.2%; Activity [16]: 6.2%; Activity [18]: 99.9%; FIC [19]: 0.25; Activity [23]: 1.9 log10CFU/ml; Activity [29]: 75%; Activity [30]: >99.9%; fractional inhibitory concentration index (FICI) [31]: 0.5; Activity [33]: >1 log10CFU/ml; Activity [34]: Active
3 | CO[C@H]1/C=C/O[C@@]2(C)Oc3c(C)c(O)c4c(O)c(c(/C=N/N5CCN(C)CC5)c(O)c4c3C2=O)NC(=O)/C(C)=C\C=C\[C@H](C)[C@H](O)[C@@H](C)[C@@H](O)[C@@H](C)[C@H](OC(C)=O)[C@@H]1C [RIFAMPIN] |  |  |  |  | 0.04 µM and 0.03 µg/mL |  |  | 0.063 |  |  |  | 19.5 µM (≈ 16 µg/mL) |  |  |  |  |  |  |  |  | Activity [35]: 27%; Activity [36]: Active; FIC [10]: 0.25
4 | CCCCCCCCCCCCCCCC(N)CO (stereo not drawn) | 125 µM |  | 10.2 µM | 237 | 1.52 µM (≈ 0.413 µg/mL) |  |  |  | 129 µM | 512 µM (≈ 139 µg/mL) | 0.5 | 128 µM (≈ 34.8 µg/mL) | 0.5 | 0.5 | 0.63 | 0.53 | 0.25 | 0.75 | 16 µM (≈ 4.34 µg/mL) | 0.56 | FIC [19]: 0.25; Activity [29]: 87.5%; fractional inhibitory concentration index (FICI) [31]: 0.38
5 | CCCCCCCCCCCCCCCC(N)COCc1ccccc1 (stereo not drawn) | 42.2 µM |  | 5.94 µM | 80 | 4.5 µM (≈ 1.63 µg/mL) |  |  |  | 99.2 µM | 128 µM (≈ 46.3 µg/mL) | 0.25 | 16 µM (≈ 5.79 µg/mL) | 0.5 | 0.5 | 1 | 0.75 | 0.25 | 0.75 | 16 µM (≈ 5.79 µg/mL) | 0.75 | fractional inhibitory concentration index (FICI) [37]: 0.56; Activity [18]: 24.56%; fractional inhibitory concentration index (FICI) [38]: 0.56; Activity [30]: >99.9%; FIC [39]: 0.5
